Measured values from patent US4461902A, “Thiazolidine derivatives and production thereof” (Takeda Chemical Industries, Ltd., priority 1982, dated 1984).

test system: blood sugar; experiment: Hypoglycemic activity in mice (blood sugar by the glucose oxidase method); assay type: in vivo, KKA^y mice (female, 10 weeks of age); details: KKA^y mice; 0.02% in powder diet CE2 for 4 days; activity of test compound 1 regarded as 100
Source text: KKA^y mice (female, 10 weeks of age, 5 mice/group) received ad libitum powder diet CE2 (CLEA JAPAN) containing 0.02% of the compounds indicated below in the table mixed therewith for 4 days. Water was available ad libitum throughout the period. Blood sample were taken from the orbital vein and assayed for blood sugar by the glucose oxidase method.

Compound	Hypoglycemic activity (relative potency)
CC1(COc2ccc(CC3SC(=O)NC3=O)cc2)CCCCC1O (stereo not drawn) [compound 4]	114
5-[4-(2-hydroxy-1-methylcyclohexylmethoxy)benzyl]thiazolidine-2,4-dione [Test compound 4]	118
C[C@@]1(COc2ccc(CC3SC(=O)NC3=O)cc2)CCC[C@@H](O)C1 (relative stereo) [Test compound 6, 5-[4-(t-3-hydroxy-1-methyl-r-1-cyclohexylmethoxy)benzyl]-thiazolidine-2,4-dione]	369
CC1(COc2ccc(CC3SC(=O)NC3=O)cc2)CCCCC1=O (stereo not drawn) [Test compound 3, 5-[4-(1-methyl-2-oxocyclohexylmethoxy)-benzyl]thiazolidine-2,4-dione]	179
C[C@@]1(COc2ccc(CC3SC(=O)NC3=O)cc2)CCC[C@H](O)C1 (relative stereo) [compound 7]	125

test system: not listed separately; experiment: Toxicity (LD50) in mice; details: mouse, in vivo

Compound	LD50 [mg/kg]
CC1(COc2ccc(CC3SC(=O)NC3=O)cc2)CCCC(=O)C1 (stereo not drawn) [5-[4-(1-methyl-3-oxocyclohexylmethoxy)benzyl]thiazolidine-2,4-dione]	≥ 5000
CC1(COc2ccc(CC3SC(=O)NC3=O)cc2)CCC(=O)CC1 (stereo not drawn) [Example 3, 5-[4-(1-methyl-4-oxocyclohexylmethoxy)benzyl]thiazolidine-2,4-dione]	≥ 5000
CC1(COc2ccc(CC3SC(=O)NC3=O)cc2)CCCCC1=O (stereo not drawn) [Test compound 3, 5-[4-(1-methyl-2-oxocyclohexylmethoxy)-benzyl]thiazolidine-2,4-dione]	≥ 5000
CC1(COc2ccc(CC3SC(=O)NC3=O)cc2)CCC(O)CC1 (stereo not drawn) [5-[4-(4-hydroxy-1-methylcyclohexylmethoxy)benzyl]thiazolidine-2,4-dione]	≥ 5000
